Laboratory results as given in paper PMC7093416, “Selective USP7 inhibition elicits cancer cell killing through a p53-dependent mechanism” (Scientific Reports, 2020).

Tested on: panel of 484 cancer cell lines
Assay: PRISM cancer cell line profiling, 5 days
Type: cell-based
Design: AUC: unit not given beside the values
Procedure: Cancer cell line profiling was performed using the Broad’s PRISM platform. Cell treatment and data analysis were performed as described in Yu et al[42]. Raw Luminex signal was converted to AUC values for each cell line as described. The resulting AUC profile for each compound was modeled against DepMap using the limma package in R[71]. Because hotspot mutation analysis was performed against DepMap, TP53 annotations in Fig. 6c,d are directly from DepMap.

`COc1ccc(C2=N[C@@H](c3ccc(Cl)cc3)[C@@H](c3ccc(Cl)cc3)N2C(=O)N2CCNC(=O)C2)c(OC(C)C)c1` [Nutlin-3A] was tested, and the AUC (LCLC103H_LUNG) was 1.118, the AUC (LI7_LIVER) was 1.226 and the AUC (LK2_LUNG) was 1.169. It also gave an AUC (LMSU_STOMACH) of 1.203, an AUC (LN18_CENTRAL_NERVOUS_SYSTEM) of 0.9973 and an AUC (LN229_CENTRAL_NERVOUS_SYSTEM) of 1.064. For the same compound, the AUC (LNCAPCLONEFGC_PROSTATE) was 0.906, the AUC (LOUNH91_LUNG) was 1.066 and the AUC (LOVO_LARGE_INTESTINE) was 1.199. It also gave an AUC (LOXIMVI_SKIN) of 0.8907, an AUC (LS180_LARGE_INTESTINE) of 0.8897 and an AUC (LS411N_LARGE_INTESTINE) of 1.29. The AUC (LS513_LARGE_INTESTINE) was 0.8844, the AUC (LS1034_LARGE_INTESTINE) was 1.251 and the AUC (LU99_LUNG) was 0.8923. For the same compound, the AUC (LUDLU1_LUNG) was 1.181, the AUC (LXF289_LUNG) was 1.109 and the AUC (MALME3M_SKIN) was 0.9143. It also gave an AUC (MCAS_OVARY) of 1.217, an AUC (MCF7_BREAST) of 0.9374 and an AUC (MDAMB175VII_BREAST) of 0.8089. The AUC (MDAMB231_BREAST) was 1.111, the AUC (MDAMB435S_SKIN) was 1.081 and the AUC (MDAMB436_BREAST) was 1.063. The AUC (MDAMB468_BREAST) was 1.113, the AUC (MELHO_SKIN) was 1.198 and the AUC (MELJUSO_SKIN) was 0.855. The AUC (MESSA_SOFT_TISSUE) was 0.8635, the AUC (MEWO_SKIN) was 1.1265 and the AUC (MFE280_ENDOMETRIUM) was 1.185. The AUC (MFE296_ENDOMETRIUM) was 1.073, the AUC (MFE319_ENDOMETRIUM) was 1.2827 and the AUC (MG63_BONE) was 1.195. The AUC (MHHES1_BONE) was 1.218, the AUC (MIAPACA2_PANCREAS) was 1.097 and the AUC (MKN1_STOMACH) was 1.379. For the same compound, the AUC (MKN7_STOMACH) was 1.0858, the AUC (MKN45_STOMACH) was 0.8665 and the AUC (MKN74_STOMACH) was 1.252. It also gave an AUC (MON_SOFT_TISSUE) of 0.7179, an AUC (MPP89_PLEURA) of 1.087 and an AUC (MSTO211H_PLEURA) of 0.822. For the same compound, the AUC (NB1_AUTONOMIC_GANGLIA) was 0.8777, the AUC (NCIH23_LUNG) was 0.9857 and the AUC (NCIH28_PLEURA) was 0.8619. It also gave an AUC (NCIH226_LUNG) of 0.8738, an AUC (NCIH292_LUNG) of 0.8581 and an AUC (NCIH322_LUNG) of 1.162. For the same compound, the AUC (NCIH358_LUNG) was 1.107, the AUC (NCIH446_LUNG) was 1.181 and the AUC (NCIH460_LUNG) was 0.8926. It also gave an AUC (NCIH520_LUNG) of 1.322, an AUC (NCIH522_LUNG) of 1.212 and an AUC (NCIH596_LUNG) of 1.199. It also gave an AUC (NCIH650_LUNG) of 1.249, an AUC (NCIH661_LUNG) of 1.081 and an AUC (NCIH727_LUNG) of 1.026. It also gave an AUC (NCIH747_LARGE_INTESTINE) of 1.189, an AUC (NCIH838_LUNG) of 0.9622 and an AUC (NCIH841_LUNG) of 1.117. The AUC (NCIH1048_LUNG) was 1.2735, the AUC (NCIH1299_LUNG) was 1.108 and the AUC (NCIH1339_LUNG) was 1.0925. For the same compound, the AUC (NCIH1355_LUNG) was 1.119, the AUC (NCIH1373_LUNG) was 1.06 and the AUC (NCIH1435_LUNG) was 1.3405. It also gave an AUC (NCIH1437_LUNG) of 1.108, an AUC (NCIH1563_LUNG) of 0.9521 and an AUC (NCIH1568_LUNG) of 1.038. It also gave an AUC (NCIH1573_LUNG) of 1.073, an AUC (NCIH1581_LUNG) of 1.043 and an AUC (NCIH1623_LUNG) of 1.145. It also gave an AUC (NCIH1648_LUNG) of 1.123, an AUC (NCIH1650_LUNG) of 0.973 and an AUC (NCIH1651_LUNG) of 1.183. For the same compound, the AUC (NCIH1693_LUNG) was 1.133, the AUC (NCIH1703_LUNG) was 1.137 and the AUC (NCIH1792_LUNG) was 1.259. For the same compound, the AUC (NCIH1793_LUNG) was 1.1676, the AUC (NCIH1838_LUNG) was 1.199 and the AUC (NCIH1915_LUNG) was 1.099. The AUC (NCIH1944_LUNG) was 0.8303, the AUC (NCIH1975_LUNG) was 1.115 and the AUC (NCIH2009_LUNG) was 0.9703. It also gave an AUC (NCIH2023_LUNG) of 1.159, an AUC (NCIH2030_LUNG) of 1.1142 and an AUC (NCIH2052_PLEURA) of 0.8463. The AUC (NCIH2077_LUNG) was 0.9696, the AUC (NCIH2087_LUNG) was 1.211 and the AUC (NCIH2110_LUNG) was 1.143. For the same compound, the AUC (NCIH2122_LUNG) was 0.8016 and the AUC (NCIH2126_LUNG) was 1.1108.
